# Several values for one entry are separate records, joined by “and”; a condition that tells them apart may be missing. Identical values can stand only once. Numbers after ± are expanded uncertainties.
# Columns and labels:
# [1] = 298.15 K; 101.33 kPa; Liquid
# [2] = excess molar enthalpy (molar enthalpy of mixing); xn = mol fraction of the nth substance listed; settings: 298.15 K, 101 kPa, Liquid, Flow calorimetry
structure (smiles),measurement,setting,value
C=CCCCC [hex-1-ene],mass density,[1],668.762 ± 0.96 kg/m3
C1CCOC1 [tetrahydrofuran],mass density,[1],882.078 ± 0.21 kg/m3
CCCOCCC [dipropyl ether] + C=CCCCC,excess molar enthalpy,[2]; x1 = 0.0529,0.00158 ± 0.000201 kcal/mol
same,excess molar enthalpy,[2]; x1 = 0.1001,0.00289 ± 0.00021 kcal/mol
same,excess molar enthalpy,[2]; x1 = 0.15,0.00394 ± 0.000217 kcal/mol
same,excess molar enthalpy,[2]; x1 = 0.2001,0.0048 ± 0.000225 kcal/mol
same,excess molar enthalpy,[2]; x1 = 0.25,0.00545 ± 0.000229 kcal/mol
same,excess molar enthalpy,[2]; x1 = 0.3002,0.00595 ± 0.000232 kcal/mol
same,excess molar enthalpy,[2]; x1 = 0.3499,0.00632 ± 0.000234 kcal/mol
same,excess molar enthalpy,[2]; x1 = 0.4001,0.00654 ± 0.000237 kcal/mol
same,excess molar enthalpy,[2]; x1 = 0.4501,0.00671 ± 0.000239 kcal/mol
same,excess molar enthalpy,[2]; x1 = 0.5001,0.00669 ± 0.000239 kcal/mol
same,excess molar enthalpy,[2]; x1 = 0.55,0.00661 ± 0.000237 kcal/mol
same,excess molar enthalpy,[2]; x1 = 0.5998,0.00641 ± 0.000237 kcal/mol
same,excess molar enthalpy,[2]; x1 = 0.6499,0.00609 ± 0.000234 kcal/mol
same,excess molar enthalpy,[2]; x1 = 0.6996,0.0057 ± 0.000232 kcal/mol
same,excess molar enthalpy,[2]; x1 = 0.75,0.00515 ± 0.000227 kcal/mol
same,excess molar enthalpy,[2]; x1 = 0.8003,0.0045 ± 0.000222 kcal/mol
same,excess molar enthalpy,[2]; x1 = 0.85,0.00368 ± 0.000215 kcal/mol
same,excess molar enthalpy,[2]; x1 = 0.9,0.00271 ± 0.000208 kcal/mol
same,excess molar enthalpy,[2]; x1 = 0.95,0.00146 ± 0.000198 kcal/mol
CCCOCCC [dipropyl ether] + CCCCOCCCC,excess molar enthalpy,[2]; x1 = 0.05,0.000533 ± 0.000189 kcal/mol
same,excess molar enthalpy,[2]; x1 = 0.1,0.00102 ± 0.000194 kcal/mol
same,excess molar enthalpy,[2]; x1 = 0.15,0.0014 ± 0.000196 kcal/mol
same,excess molar enthalpy,[2]; x1 = 0.2001,0.00175 ± 0.000198 kcal/mol
same,excess molar enthalpy,[2]; x1 = 0.25,0.00205 ± 0.000201 kcal/mol
same,excess molar enthalpy,[2]; x1 = 0.3,0.00229 ± 0.000203 kcal/mol
same,excess molar enthalpy,[2]; x1 = 0.35,0.00246 ± 0.000206 kcal/mol
same,excess molar enthalpy,[2]; x1 = 0.3998,0.00261 ± 0.000206 kcal/mol
same,excess molar enthalpy,[2]; x1 = 0.4497,0.00275 ± 0.000208 kcal/mol
same,excess molar enthalpy,[2]; x1 = 0.4998,0.00283 ± 0.000208 kcal/mol
same,excess molar enthalpy,[2]; x1 = 0.5004,0.00283 ± 0.000208 kcal/mol
same,excess molar enthalpy,[2]; x1 = 0.55,0.00284 ± 0.000208 kcal/mol
same,excess molar enthalpy,[2]; x1 = 0.6001,0.00281 ± 0.000208 kcal/mol
same,excess molar enthalpy,[2]; x1 = 0.65,0.00271 ± 0.000208 kcal/mol
same,excess molar enthalpy,[2]; x1 = 0.6999,0.00253 ± 0.000206 kcal/mol
same,excess molar enthalpy,[2]; x1 = 0.75,0.00228 ± 0.000203 kcal/mol
same,excess molar enthalpy,[2]; x1 = 0.8,0.00196 ± 0.000201 kcal/mol
same,excess molar enthalpy,[2]; x1 = 0.8503,0.00159 ± 0.000198 kcal/mol
same,excess molar enthalpy,[2]; x1 = 0.9,0.00111 ± 0.000196 kcal/mol
same,excess molar enthalpy,[2]; x1 = 0.95,0.000612 ± 0.000191 kcal/mol
CCCOCCC [dipropyl ether],mass density,[1],741.997 ± 0.83 kg/m3
CCCOCCC [dipropyl ether] + C1CCOC1,excess molar enthalpy,[2]; x1 = 0.05,0.0125 ± 0.000359 kcal/mol
same,excess molar enthalpy,[2]; x1 = 0.1,0.0232 ± 0.000454 kcal/mol
same,excess molar enthalpy,[2]; x1 = 0.1501,0.0325 ± 0.00055 kcal/mol
same,excess molar enthalpy,[2]; x1 = 0.2,0.0402 ± 0.000621 kcal/mol
same,excess molar enthalpy,[2]; x1 = 0.2498,0.0468 ± 0.000693 kcal/mol
same,excess molar enthalpy,[2]; x1 = 0.2998,0.0518 ± 0.000741 kcal/mol
same,excess molar enthalpy,[2]; x1 = 0.3503,0.0556 ± 0.000789 kcal/mol
same,excess molar enthalpy,[2]; x1 = 0.3998,0.058 ± 0.000813 kcal/mol
same,excess molar enthalpy,[2]; x1 = 0.45,0.0591 ± 0.000837 kcal/mol
same,excess molar enthalpy,[2]; x1 = 0.4998,0.0594 kcal/mol and 0.0593 kcal/mol
same,excess molar enthalpy,[2]; x1 = 0.5499,0.0585 ± 0.000837 kcal/mol
same,excess molar enthalpy,[2]; x1 = 0.5999,0.0565 ± 0.000813 kcal/mol
same,excess molar enthalpy,[2]; x1 = 0.6502,0.0535 ± 0.000765 kcal/mol
same,excess molar enthalpy,[2]; x1 = 0.7003,0.0493 ± 0.000717 kcal/mol
same,excess molar enthalpy,[2]; x1 = 0.7499,0.0441 ± 0.000669 kcal/mol
same,excess molar enthalpy,[2]; x1 = 0.7999,0.0381 ± 0.000598 kcal/mol
same,excess molar enthalpy,[2]; x1 = 0.85,0.0305 ± 0.000526 kcal/mol
same,excess molar enthalpy,[2]; x1 = 0.9,0.0216 ± 0.00043 kcal/mol
same,excess molar enthalpy,[2]; x1 = 0.95,0.0115 ± 0.000335 kcal/mol

# — the NIST ThermoML archive (doi:10.1021/je100897y)
